# Molecular target: Platelet-activating factor receptor (Homo sapiens, UniProt P25105)
# Assay: Antagonistic activity for inhibition of [3H]PAF receptor binding to washed human platelet membranes.
# Platelet-activating factor receptor, sequence (P25105 whole entry): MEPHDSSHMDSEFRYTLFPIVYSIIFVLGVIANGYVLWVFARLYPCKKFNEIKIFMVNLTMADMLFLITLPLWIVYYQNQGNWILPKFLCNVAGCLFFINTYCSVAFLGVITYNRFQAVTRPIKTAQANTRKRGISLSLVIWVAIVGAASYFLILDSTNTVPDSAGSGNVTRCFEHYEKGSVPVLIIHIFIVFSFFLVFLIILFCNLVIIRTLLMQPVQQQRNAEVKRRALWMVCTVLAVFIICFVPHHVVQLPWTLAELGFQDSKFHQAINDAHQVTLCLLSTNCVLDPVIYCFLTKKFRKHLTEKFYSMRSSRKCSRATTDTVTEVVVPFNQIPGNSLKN
row,IC50 [nM],Compound
1,0.015,CCOC[C@H](CC(C)C)NS(=O)(=O)c1ccc(Cn2c(C)nc3cnccc32)cc1
2,2.3,O=C([C@@H]1CSC(c2cccnc2)N1)N1CCN(CCCc2ccccc2)CC1 (stereo partly drawn)
3,500,Cc1nc2ccccc2n1Cc1ccc(C(=O)N(C)C2CCCCC2)cc1
